Reference: PubChem BioAssay AID1645865 (Buhrlage Lab, Dana-Farber Cancer Institute and Novartis …, 2021)
Calls of active or inactive are those of the source.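 Rule for the calls: active = maximal inhibition of the USP30 enzyme reaching 30% or more across the dose series; inactive = the rest.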

Biological target: Ubiquitin carboxyl-terminal hydrolase 30 (Homo sapiens) (UniProt Q70CQ3)
Test: inhibitors of ubiquitin-specific protease 30 deubiquitylating enzyme, concentration dependence, in vitro biochemical, validation of primary hits (AID 1645865)
Settings: purified USP30, Ub-rhodamine cleavage, fluorescence, 2 h

Sequence of Ubiquitin carboxyl-terminal hydrolase 30 (Homo sapiens) (Q70CQ3 whole entry, looked up): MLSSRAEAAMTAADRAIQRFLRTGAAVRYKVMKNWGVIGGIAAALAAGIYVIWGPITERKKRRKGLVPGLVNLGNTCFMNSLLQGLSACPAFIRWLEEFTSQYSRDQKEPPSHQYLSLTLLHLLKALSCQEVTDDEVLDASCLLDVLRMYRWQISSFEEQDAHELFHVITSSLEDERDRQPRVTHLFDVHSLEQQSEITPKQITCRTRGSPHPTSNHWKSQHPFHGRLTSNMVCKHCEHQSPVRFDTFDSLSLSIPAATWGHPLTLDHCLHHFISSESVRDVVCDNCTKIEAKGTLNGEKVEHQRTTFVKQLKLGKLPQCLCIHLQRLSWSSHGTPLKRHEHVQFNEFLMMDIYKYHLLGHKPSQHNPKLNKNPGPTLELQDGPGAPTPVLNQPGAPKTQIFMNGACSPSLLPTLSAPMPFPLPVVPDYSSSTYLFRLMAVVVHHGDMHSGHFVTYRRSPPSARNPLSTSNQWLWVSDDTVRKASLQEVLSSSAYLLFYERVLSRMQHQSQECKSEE

SMILES | IC50
CCc1cccc(CC)c1NC(=O)COC(=O)c1cc2cccc(OC)c2oc1=O | 39.5 µM
CCc1ccc2[nH]c(=O)c(CN(CCc3ccc(OC)c(OC)c3)C(=O)Nc3ccccc3)cc2c1 | > 50 µM (inactive)
Cc1cccc(NC(=O)Nc2ccc(C)n(CC(=O)Nc3ccccc3)c2=O)c1 | 4.62 µM
NS(=O)(=O)c1ccc(CNS(=O)(=O)c2ccc(-c3ccccn3)s2)cc1 | 24.5 µM
Cc1cc(C)c(NC(=O)Cn2c(=O)n(CCC(=O)NCc3ccc4c(c3)OCO4)c(=O)c3sccc32)c(C)c1 | 1.98 µM
Cc1cc(C(=O)CSc2nc3ccccc3[nH]2)c(C)n1Cc1ccco1 | > 50 µM (inactive)
COc1ccc(CCNC(=O)CCCn2c(=O)c3ccccc3n(CC(=O)OCc3ccccc3)c2=O)cc1OC | 18.3 µM
CCCCC/C=C/C=C/C(=O)OC1C(O)CC(c2ccc3c(c2O)C(=O)c2c(O)cc4cc(C)cc(O)c4c2C3=O)OC1C (centres undefined) | > 50 µM (inactive)
COc1cnc(-c2ccccn2)nc1Sc1ccccc1Cl | 2.89 µM
COc1ccc(OC)c(-c2cc(C(=O)Nc3c(C)nn(Cc4ccccc4)c3C)no2)c1 | > 50 µM (inactive)
CCS(=O)(=O)N1CCc2cc(C(=O)Nc3ccc4c(c3)OCCO4)ccc21 | > 50 µM (inactive)
COC(=O)c1sccc1NC(=O)COc1ccsc1C(=O)OC | 27.9 µM
CC(C)(C)c1cc(CCC(=O)Nc2c3c(nc4c2CCC4)CCCC3)cc(C(C)(C)C)c1O | > 50 µM (inactive)
Cc1sc(NC(=O)/C=C/c2ccco2)nc1-c1ccccc1 | > 50 µM (inactive)
O=C1Nc2c(Cl)cc(Cl)cc2C1(O)c1sc(NC2CCCCC2)nc1-c1ccccc1 (centres undefined) | 31.2 µM
O=C(COc1ccc(Cl)cc1)Nc1noc(-c2ccccc2)n1 | 25.8 µM
COc1cc(OC)cc(C(=O)Nc2cnc(-c3ccccc3)nc2)c1 | > 50 µM (inactive)
CN(CCCNC(=O)c1cccc2c1SCCC2=O)c1ccccc1 | > 50 µM (inactive)
Cc1ccc(-c2nc(-c3cccs3)cc(C(F)(F)F)c2C#N)cc1 | > 50 µM (inactive)
CCOc1ccc2c(c1)c(=O)c(C(=O)c1ccccc1)cn2CC(=O)Nc1ccccc1 | 4.27 µM
Cc1cc(-n2c(C)cc(-c3csc(N)n3)c2C)no1 | > 50 µM (inactive)

SMILES | IC50
O=C(Nc1cccc2ccccc12)C1CCCN(S(=O)(=O)Cc2ccccc2)C1 (centres undefined) | 4.36 µM
CC(C)N1CC2CN(C(=O)c3ccccc3)CCN2Cc2ccccc21 (centres undefined) | > 50 µM (inactive)
O=C1CC(O)C(O)c2cccc(O)c21 (centres undefined) | > 50 µM (inactive)
CCc1nc2c(NC(=O)Nc3cccc(C(=O)OC)c3)cccn2n1 | > 50 µM (inactive)
CC(C)OC(=O)c1cc2c(ccn2C)n1CC(=O)N1CCN(C(=O)c2ccco2)CC1 | > 50 µM (inactive)
O=C1CC(c2cc3c(cc2Br)OCO3)c2cc3c(cc2N1)OCCO3 (centres undefined) | 19.2 µM
COc1cccc(CCNC(=O)CCn2c(=O)c(C)nc3cc(C)c(C)cc32)c1 | > 50 µM (inactive)
CC(C)CC[C@H]1O[C@@H](CC(=O)O)Cc2cc3c(c(O)c21)C(=O)c1sc(=O)n(C)c1C3=O | > 50 µM (inactive)
Nc1ccccc1SCc1noc(-c2cccs2)n1 | > 50 µM (inactive)
NC(=O)CCC(=O)N[C@H]1C[C@H]2CN(Cc3ccccc3)c3ccccc3CN2C1 | > 50 µM (inactive)
CCc1cc(C(=O)c2ccc(OC)cc2)c(NC(=O)CN2CCCCC2)s1 | 33.5 µM
COc1ccc(OC)c(C2CC(=O)Nc3n[nH]c(-c4ccccc4)c32)c1 (centres undefined) | 25.6 µM
CCCCCCCc1cc(O)cc(O)c1 | 38.9 µM
COc1cc(COc2ccc3c(C)c(CC(=O)N4CC[C@@]5(O)CCCC[C@H]5C4)c(=O)oc3c2C)cc(OC)c1OC | 34.8 µM
Cc1cc(/C=C2/C(=N)N3C(c4ccccc4)=CSC3=NC2=O)c(C)n1-c1ccc2ccccc2c1 | > 50 µM (inactive)
CC(C)c1nc2sc3c(N(CCO)CCO)ncnc3c2c2c1COC(C)(C)C2 | > 50 µM (inactive)
COc1ccccc1C(=O)NCC(c1ccc2c(c1)CCCN2C)N1CCCC1 (centres undefined) | > 50 µM (inactive)
Cn1ccc2c(cc(C(=O)NCCC3=CCCCC3)n2C)c1=O | > 50 µM (inactive)
COc1cc(Cl)ccc1Oc1ncnc2sc(C)c(C)c12 | > 50 µM (inactive)
COC1=CC(=O)c2c(O)c(C)c(CC(C)=O)c(O)c2C1=O | > 50 µM (inactive)
CCCn1c(=O)c(-c2ccc(C(=O)NCc3ccc(OC)cc3)cc2)nc2cccnc21 | 1.84 µM

SMILES | IC50
Cc1ccc(Cn2cc(-c3noc(-c4ccc[nH]4)n3)nn2)cc1 | 23.8 µM
N#Cc1ccc(-c2ccc(OCC(=O)Nc3ccc4c(c3)OCO4)cc2)cc1 | 3.89 µM
CCc1nc(N2CCCC2=O)sc1C(=O)Nc1cccc(C(C)=O)c1 | > 50 µM (inactive)
Cc1cc(O)c2c3c(c(O)c4c(c13)O[C@@H](C)C4(C)C)C(=O)C2=O | 35.1 µM
O=C(c1ccsc1)N1CCC2(C1)Nc1cccnc1NC2=NC1CCCC1 (centres undefined) | > 50 µM (inactive)
N#Cc1ccc(Cc2ncc(C(F)(F)F)cc2Cl)s1 | > 50 µM (inactive)
CC(=O)Nc1ccc(S(=O)(=O)NCc2ccc(C(=O)NCCc3ccc(Cl)cc3)cc2)cc1 | 1.71 µM
O=C(c1cc2ccccc2o1)N1CC=C(c2ccccc2)CC1 | > 50 µM (inactive)
O=C(NCc1ccccc1Cl)c1ccc2cn[nH]c2c1 | > 50 µM (inactive)
Cc1ccc(C)c(-n2c(N)c(C(=O)NCCc3ccccc3)c3nc4ccccc4nc32)c1 | > 50 µM (inactive)
O=C(/C=C/c1ccc2c(c1)OCO2)Nc1nc2c(s1)COCC2 | 25.8 µM
COc1ccc(Cl)cc1NC(=O)Cn1c(=O)cc(C)c2c(C)nn(-c3ccccc3)c21 | 1.99 µM
O=C(Nc1cccc(OC(=O)c2ccc(Cl)cc2)c1)c1ccc(Cl)cc1 | 16 µM
COc1cccc2cc(C(=O)Nc3ccc4c(c3)OCCO4)oc12 | > 50 µM (inactive)
CCCc1nc2sc3c(NCCc4ccc(OC)c(OC)c4)ncnc3c2c2c1CCC2 | > 50 µM (inactive)
NS(=O)(=O)c1cccc(NC(=O)CN2CCCc3ccccc32)c1 | > 50 µM (inactive)
CCCn1cc(C(=O)N2CCC3(CC2)CC2(CO3)Nc3ccccc3-n3cccc32)c(C)n1 (centres undefined) | > 50 µM (inactive)
Cc1c(C)n(-c2ccc(Br)cn2)c2ncnc(NCCCO)c12 | 25.4 µM
COc1ccc2nc(Nc3ncc4c(n3)CCCC4=O)nc(C)c2c1 | > 50 µM (inactive)

Now from value to compound:

IC50 | SMILES
> 50 µM (inactive) | O=C(CCc1ccc(S(=O)(=O)N2CCOCC2)cc1)Nc1ccc2c(c1)OCCO2
30.6 µM | CC1=C(C(=O)Nc2ccccc2C)C(c2ccc(OCc3ccccc3F)cc2)n2ncnc2N1 (centres undefined)
0.156 µM | O=[N+]([O-])c1ccc(N2CCN(c3ncnc4c3[nH]c3ccc(F)cc34)CC2)cc1
> 50 µM (inactive) | O=c1[nH]c2ccc(S(=O)(=O)Nc3ccc(O)c4ccccc34)cc2[nH]1
> 50 µM (inactive) | NC(=O)Cn1c(=O)n(Cc2ccc(C(=O)NC3CCCC3)cc2)c(=O)c2ccccc21
> 50 µM (inactive) | O=C(NCc1nc(-c2ccc3c(c2)[nH]c(=O)n3C2CCCC2)no1)c1ccccc1
> 50 µM (inactive) | O=C(CSc1nnc2n1CCCCC2)Nc1ccc2[nH]c(=O)[nH]c2c1
> 50 µM (inactive) | O=C(COC(=O)c1ccc(CN2CCCC2=O)cc1)c1ccc2c(c1)OCCO2
0.143 µM | COc1cc(OC)cc(-c2nc(-c3cn(-c4cccc(F)c4)nn3)no2)c1
> 50 µM (inactive) | CC(=O)c1cccc(NC(=O)c2ccc3[nH]c4c(c3c2)CC(C)CC4)c1 (centres undefined)
25.1 µM | O=C(CCc1c[nH]c2ccccc12)Nc1ccc(N2CCOCC2)cc1
27.6 µM | Cc1ccc(NC(=O)c2cnc(N3CCOCC3)nc2)cc1F
3.65 µM | CC(Nc1ncnc2c1sc1nc(N3CCOCC3)c3c(c12)CCC3)c1ccccc1 (centres undefined)
44.9 µM | Cc1cccc(-n2cnc(C(=O)NCc3ccc(F)cc3)c2)n1
> 50 µM (inactive) | O=C(NCc1cccnc1)C1CCN(c2cnc(N3CCCCCC3)nc2)CC1
> 50 µM (inactive) | CCCCc1nc2sc3c(SCC(=O)NCc4ccccc4)ncnc3c2c2c1CCC2
0.887 µM | COc1ccccc1-c1nc2c3c(C)c(C)n(-c4ccc(Br)cn4)c3ncn2n1
34.9 µM | Cc1nn(-c2cc(N3CCOCC3)ncn2)c(C)c1CCC(=O)Nc1ccc(C(C)C)cc1
12.3 µM | Cc1ccc(-c2cn(CC(=O)N3CCN(c4ccccn4)CC3)c(=O)o2)cc1

IC50 | SMILES
19.6 µM | N#Cc1c(Cl)cccc1Oc1ccc(S(=O)(=O)N2CCC(O)CC2)cc1
> 50 µM (inactive) | CNc1nc2c(c(=O)n1C)CN(C(=O)Nc1cccc3ccccc13)CC2
49.5 µM | O=C(COc1ccc(S(=O)(=O)N2CCOCC2)cc1)N1CCC(Cc2ccccc2)CC1
> 50 µM (inactive) | O=C(CN1CCCc2ccccc21)Nc1ccc(N2CCOCC2)cc1
> 50 µM (inactive) | O=C(CSc1nnc(-c2ccncc2)n1Cc1ccccc1)c1ccc2[nH]c(O)cc2c1
33.2 µM | O=C(c1cc(-c2ccncc2)n[nH]1)N1CCC(C(=O)N2CC=C(c3ccccc3)CC2)CC1
> 50 µM (inactive) | Cc1ccc(Nc2nc(Nc3cccc(F)c3)nc3nccnc23)c(C)c1
0.545 µM | Nc1c(C(=O)Nc2ccc3c(c2)OCO3)sc2nc(-c3cccnc3)ccc12
> 50 µM (inactive) | CCn1c(=O)c2ccccc2n(Cc2nc(-c3ccccc3OC)no2)c1=O
4.01 µM | O=C(Nc1ccccc1Sc1ncc(-c2ccc(Cl)cc2)cn1)c1ccco1
32.5 µM | Cc1nn(-c2cccc(F)c2)c2c1C(C(=O)c1ccc(Cl)s1)CC(=O)N2 (centres undefined)
17.2 µM | Cc1ccn(-c2ccc(NC(=O)C3CCCCC3)cc2)n1
> 50 µM (inactive) | CCOc1ccccc1NC(=O)Cn1c(-c2ccc3c(c2)OCO3)cn(-c2ccc(OC)cc2)c1=O
35.4 µM | O=C(Nc1ccc2sccc2c1)c1ccc(F)cc1
2.33 µM | O=C(Cn1cnc2c(cnn2-c2ccc(Cl)cc2)c1=O)NCc1ccccc1Cl
11.5 µM | O=C(C(c1ccccc1)c1ccccc1)N1CCC(c2nc3c(nnn3Cc3c(F)cccc3Cl)c(=O)[nH]2)CC1
40.7 µM | Cc1ccc(-n2cc3c(N4CCCC(C(=O)NCC5CCCCC5)C4)ncnc3n2)cc1 (centres undefined)
20.2 µM | CSc1ccc(CNC(=O)CC2CCN(S(=O)(=O)c3ccc(C)cc3)CC2)cc1
> 50 µM (inactive) | O=C(CN1C(=O)c2ccccc2Sc2ccc(C(=O)N3CCCC3)cc21)Nc1ccccc1Cl
